{
  "source": "paper PMC5346982",
  "about": "“Antimalarial Properties of Simplified Kalihinol Analogues” (ACS Medicinal Chemistry Letters, 2017)",
  "key": {"[1]": {"test_system": "FCR-3 Plasmodium falciparum", "parameters": "method as in doi:10.1016/S0040-4020(98)00818-7", "settings": "chloroquine-resistant FCR-3 strain; cited from earlier work"}, "P. falciparum W2": {"test_system": "P. falciparum W2", "settings": "drug-resistant W2 strain; Figure 1; cited from earlier work"}, "P. falciparum 3D7": {"test_system": "P. falciparum 3D7", "assay": "SYBR Green based parasite proliferation assay, drug-sensitive 3D7 strain", "format": "cell-based, Plasmodium falciparum"}, "P. falciparum Dd2 [2]": {"test_system": "P. falciparum Dd2", "assay": "SYBR Green based parasite proliferation assay, chloroquine-resistant Dd2 strain", "format": "cell-based, Plasmodium falciparum"}, "P. falciparum HB3": {"test_system": "P. falciparum HB3", "settings": "Wood group, cited from earlier work"}, "P. falciparum Dd2 [3]": {"test_system": "P. falciparum Dd2", "settings": "Wood group, cited from earlier work"}, "[4]": {"assay": "Microsomal stability assay, human liver microsomes", "format": "in vitro ADME", "settings": "pH 7.4", "protocol": "Reference compound Ketanserin\nSample size Duplicates (n=2)\nBioanalytical method LC-MS/MS\nMicrosomal Liver Weight per Hepatic\nSpecies Protein Kilogram of Body Scaling Factora Blood Flow\nper Gram of Liver Weight (mL/min/kg)\nTest Article Species Percent Remaining (%) T1/2 Clint\n1. Historic data of ketanserin:\nDetection method UPLC-MS/MS-29(API6500+)\nInternal standard (s) Osalmid, imipramine\nMS conditions Positive ion, ESI\nMobile phase A: 0.025%FA/1mM NH4OAc/H2O\n2. Reference compouds(Ketanserin) and test compounds spiking solution: […]"}, "in vitro": {"assay": "in vitro", "settings": "mouse, microsomes, pH 7.4"}, "[5]": {"settings": "microsomes; cited from earlier work"}, "[6]": {"settings": "microsomes; cited from earlier work", "remark": "listed apart in the source"}, "[7]": {"settings": "drug-sensitive 3D7 strain, 72 h incubation, n = 3, read-out: IC50"}, "[8]": {"settings": "drug-resistant Dd2 strain, 72 h incubation, n = 3, read-out: IC50"}},
  "note": "“And” between values parts separate entries of the source, which are not always exact repeats. Equal values may be shown once. Read-outs that look alike come from different tables or passages of the source.",
  "data": [
    {"compound": "6-hydroxy-kalihinene [compound 3]", "values": [
      {"measurement": "IC50", "setting": "[1]", "result": 0.08, "unit": "µM"}
    ]},
    {"compound": "7,20-diisocyanoadociane [compound 4]", "values": [
      {"measurement": "IC50", "setting": "P. falciparum W2", "result": 0.013, "unit": "µM"}
    ]},
    {"compound": "10-isocyano-4-cadinene [(±)-15]", "values": [
      {"measurement": "IC50", "setting": "P. falciparum 3D7; 3D7 strain", "result": 0.1631, "unit": "µg/mL"},
      {"measurement": "IC50", "setting": "P. falciparum 3D7; [7]", "result": 0.705, "unit": "µM"},
      {"measurement": "IC50", "setting": "P. falciparum Dd2 [2]; Dd2 strain", "result": 0.057, "unit": "µg/mL"},
      {"measurement": "IC50", "setting": "P. falciparum Dd2 [2]; [8]", "result": 0.247, "unit": "µM"},
      {"measurement": "IC50", "setting": "P. falciparum HB3; HB3 (chloroquine-sensitive)", "result": 2.2, "unit": "µM"},
      {"measurement": "IC50", "setting": "P. falciparum Dd2 [3]; Dd2 (chloroquine-resistant)", "result": 2.2, "unit": "µM"}
    ]},
    {"compound": "[C-]#[N+]C1C2C(C(C)C)CCC(C)([N+]#[C-])C2CCC1(C)O", "note": "(racemic) [(±)-22]", "values": [
      {"measurement": "IC50", "setting": "P. falciparum HB3; HB3", "result": 0.08, "unit": "µM"},
      {"measurement": "IC50", "setting": "P. falciparum Dd2 [3]; Dd2", "result": 0.08, "unit": "µM"}
    ]},
    {"compound": "CCN(CC)CCCC(C)Nc1ccnc2cc(Cl)ccc12", "note": "(stereo not shown) [Chloroquine]", "values": [
      {"measurement": "IC50", "setting": "P. falciparum 3D7; Plasmodium falciparum, 3D7, read-out: Chloroquine IC50 [µM], 3D7 strain, antimalarial standard run alongside each compound", "result": 0.0063, "unit": "µM"},
      {"measurement": "IC50", "setting": "P. falciparum 3D7; read-out: Chloroquine IC50, 3D7 strain, antimalarial standard run alongside each compound", "result": "0.0052 µM and 0.0066 µM and 0.0059 µM and 0.0091 µM and 0.0089 µM and 0.0058 µM and 0.0061 µM"},
      {"measurement": "IC50", "setting": "P. falciparum Dd2 [2]; Plasmodium falciparum, DD2, read-out: Chloroquine IC50 [µM], Dd2 strain, antimalarial standard run alongside each compound", "result": 0.0275, "unit": "µM"},
      {"measurement": "IC50", "setting": "P. falciparum Dd2 [2]; read-out: Chloroquine IC50, Dd2 strain, antimalarial standard run alongside each compound", "result": "0.0322 µM and 0.0337 µM and 0.0497 µM and 0.0521 µM"}
    ]},
    {"compound": "O=C(c1ccc(F)cc1)C1CCN(CCn2c(=O)[nH]c3ccccc3c2=O)CC1", "note": "[ketanserin]", "values": [
      {"measurement": "CLint scaled at 1 µM", "setting": "[4]; human, microsomes", "result": 40, "unit": "mL/min/kg"},
      {"measurement": "remaining at 5 min, 1 µM", "setting": "[4]; human, microsomes", "result": 88.4, "unit": "%"},
      {"measurement": "remaining at 0.25 h, 1 µM", "setting": "[4]; human, microsomes", "result": 77, "unit": "%"},
      {"measurement": "remaining at 0.5 h, 1 µM", "setting": "[4]; human, microsomes", "result": 62.5, "unit": "%"},
      {"measurement": "remaining at 0.75 h, 1 µM", "setting": "[4]; human, microsomes", "result": 47.3, "unit": "%"},
      {"measurement": "half-life at 1 µM", "setting": "[4]; human liver microsomes 0.5 mg/mL, 1 µM, 37°C", "result": 43.4, "unit": "min"},
      {"measurement": "CLint scaled at 1 µM", "setting": "in vitro", "result": 267, "unit": "mL/min/kg"},
      {"measurement": "half-life at 1 µM", "setting": "in vitro", "result": 20.4, "unit": "min"},
      {"measurement": "remaining at 0 h, 1 µM", "setting": "in vitro", "result": 100, "unit": "%"},
      {"measurement": "remaining at 5 min, 1 µM", "setting": "in vitro", "result": 79.9, "unit": "%"},
      {"measurement": "remaining at 0.25 h, 1 µM", "setting": "in vitro", "result": 55.5, "unit": "%"},
      {"measurement": "remaining at 0.5 h, 1 µM", "setting": "in vitro", "result": 32.9, "unit": "%"},
      {"measurement": "remaining at 0.75 h, 1 µM", "setting": "in vitro", "result": 21.7, "unit": "%"},
      {"measurement": "T1/2 (Human), historic data", "setting": "[5]", "result": "39.69 ± 6.36", "unit": "min"},
      {"measurement": "T1/2 (Mouse), historic data", "setting": "[6]", "result": "18.27 ± 3.89", "unit": "min"}
    ]},
    {"compound": "kalihinol A [compound 1]", "values": [
      {"measurement": "IC50", "setting": "[1]", "result": 0.0012, "unit": "µM"}
    ]},
    {"compound": "kalihinol B [compound 2]", "values": [
      {"measurement": "IC50", "setting": "P. falciparum 3D7; 3D7 strain", "result": 0.0033, "unit": "µg/mL"},
      {"measurement": "IC50", "setting": "P. falciparum 3D7; [7]", "result": 0.0084, "unit": "µM"},
      {"measurement": "IC50", "setting": "P. falciparum Dd2 [2]; Dd2 strain", "result": 0.0018, "unit": "µg/mL"},
      {"measurement": "IC50", "setting": "P. falciparum Dd2 [2]; [8]", "result": 0.0046, "unit": "µM"}
    ]}
  ]
}
